The subject of experiment [1] is HT1197 cells. Put plainly: Cell viability assay. The settings on record: read-out: Cisplatin GI50 (d5), 5-day viability assay. It is filed as cell-based.
For experiment [2], the system named is HT1376 cells. Put plainly: Cell viability assay. The format is cell-based.
Experiment [3] has as its system TCCSUP cells. Put plainly: Cell viability assay. It is filed as cell-based. The settings on record: read-out: Cisplatin GI50 (d5), 5-day viability assay.
For experiment [4], the system named is T24 cells. Put plainly: Cell viability assay. The conditions noted are these: read-out: Cisplatin GI50 (d5), 5-day viability assay. It is filed as cell-based.
The subject of experiment [5] is SW1710 cells. Put plainly: Cell viability assay. The format is cell-based. The settings on record: read-out: Cisplatin GI50 (d5), 5-day viability assay.
The subject of experiment [6] is JMSU1 cells. Put plainly: Cell viability assay. The format is cell-based. The settings on record: read-out: Cisplatin GI50 (d5), 5-day viability assay.
The test system of experiment [7] is RT4 cells. Put plainly: Cell viability assay. The conditions noted are these: read-out: Cisplatin GI50 (d5), 5-day viability assay. It is filed as cell-based.
Experiment [8] deals with SCaBER cells. Put plainly: Cell viability assay. The settings on record: read-out: Cisplatin GI50 (d5), 5-day viability assay. The format is cell-based.
Experiment [9] concerns J82 cells. Put plainly: Cell viability assay. The format is cell-based. The settings on record: read-out: Cisplatin GI50 (d5), 5-day viability assay.
Experiment [10] deals with Cal29 cells. Put plainly: Cell viability assay. The conditions noted are these: read-out: Cisplatin GI50 (d5), 5-day viability assay. The format is cell-based.
Experiment [11] has as its system BFTC905 cells. Put plainly: Cell viability assay. It is filed as cell-based. The settings on record: read-out: Cisplatin GI50 (d5), 5-day viability assay.
Experiment [12] concerns UMUC3 cells. Put plainly: Cell viability assay. The format is cell-based. The conditions noted are these: read-out: Cisplatin GI50 (d5), 5-day viability assay.
The subject of experiment [13] is KMBC2 cells. Put plainly: Cell viability assay. It is filed as cell-based. The settings on record: read-out: Cisplatin GI50 (d5), 5-day viability assay.
Experiment [14] concerns KARPAS-422 xenograft tumors. Put plainly: KARPAS-422 xenograft efficacy study. The settings on record: KARPAS-422 mouse xenograft model; 25 mg/kg, PO, QD. The format is in vivo.
[15] abbreviates: read-out: GI50, long-term cell viability assay, HT1376 cells, day 18.

Read-outs that look alike come from different tables or passages of the source.

The record followed here is paper PMC11292196 (Cancer Research, 2024).

Broadly, the GI50 is the concentration that inhibits growth by half. As for `N.N.[Cl][Pt][Cl]` [Cisplatin], the GI50 in experiment [1] was determined as 3.88 µM; in [2] (read-out: Cisplatin GI50 (d5), HT1376, 5-day viability assay), 1950 nM; in experiment [3], 220 nM; in experiment [4], 810 nM; in experiment [5] it was 2150 nM; in experiment [6], 730 nM. Also, the GI50 in [7] amounted to 3.05 µM; in [8], 1200 nM; in experiment [9], 450 nM; in experiment [10], 3.01 µM; in [11], 760 nM; in experiment [12] it was 350 nM. The GI50 in experiment [13] was determined as 3.64 µM.
For `Cc1ncccc1-c1cnc(NCc2c(F)ccc3c2CCO3)n2cnnc12` [MAK683], the concentration for 50% growth inhibition (GI50) in [2] (setting [15]) worked out at 73 nM.
With `COc1cc(C)[nH]c(=O)c1CN1CCc2c(Cl)cc([C@H](OC)C3COC3)c(Cl)c2C1=O` [PF-06821497], the GI50 in [2] (setting [15]) is roughly 5 nM.
Turning to `CCN(c1cc(-c2ccc(CN3CCOCC3)cc2)cc(C(=O)NCc2c(C)cc(C)[nH]c2=O)c1C)C1CCOCC1` [Tazemetostat], in experiment [14], the “tumor response” value was “modest TGI”.
